According to publication PMC5515969, “Effects of 31 FDA approved small-molecule kinase inhibitors on isolated rat liver mitochondria” (Archives of Toxicology, 2016):
Read-outs that look alike come from different tables or passages of the source. Marks after values point to notes of the source that are not given here.

Assays:
[1] = cited from earlier work
[2] = system: isolated rat liver mitochondria; assay: Mitochondrial toxicity, any endpoint, intact mitochondria and submitochondrial particles; type: biochemical; conditions: for lowest concentration causing significant mitochondrial toxicity: any endpoint
Experimental: Rats were anesthetized by an intraperitoneal injection of Nembutal and the liver perfused with PBS to remove the blood. The liver was then cut into small pieces and homogenized using a Dounce type homogenizer in the ice-cold isolation buffer (IB) containing 200 mM sucrose, 10 mM Tris-MOPS, 1 mM EGTA (pH 7.4). The sample was then centrifuged at 600g for 10 min. The supernatant was further centrifuged at 7500g for 10 min, and the pellets was washed once with the IB and centrifuged again at 7500g for 10 min to collect mitochondria. […] Before drug treatment, the protein concentration was adjusted to 1 mg/ml using appropriate buffer. […] Briefly, mitochondrial and cytosolic fractions from four different preparations using four rats were diluted using the Laemmli protein loading buffer and subject to SDS-PAGE with 4–20% gradient gels. The proteins were blotted to PVDF membranes and detected using antibodies against GAPDH, ATP5A, UQCRC2, SDHB, and NDUFB8.
The aliquoted stock solutions were kept for less than one month and each tube was used only once. The KIs were added to the mitochondria at 1:1000 dilutions. […] The Cmax data were from clinical trials which used FDA recommend dosages, route of administration, and duration. […] The final concentration of DMSO for drug treatment was always 0.1%, and control treatments were 0.1% DMSO.

[3] = system: isolated rat liver mitochondria; assay: Mitochondrial ROS production (CM-H2DCFDA)
[4] = system: isolated rat liver mitochondria; conditions: for lowest concentration causing cytochrome c release: rat, 30 min, pH 7.4
[5] = cited from earlier work; remark: listed apart in the source
[6] = system: isolated rat liver mitochondria; assay: Mitochondrial oxygen consumption (glutamate/malate or succinate driven, state 4 and state 3); type: biochemical; conditions: for Glutamate/malate driven respiration State 3 / Glutamate/malate driven respiration State 4 / Succinate-driven respiration State 3 / Succinate-driven respiration State 4: oxygen consumption, DMSO-treated = 1; for State 3 respiration driven by succinate at 10XCmax: key: 0 indicates that the drug had no effects (negative); for State 3 respiration driven by succinate at 1XCmax: key: 0 indicates that the drug had no effects (negative)
Procedure, shortened: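 Oxygen uptake on glutamate/malate or on succinate defined state 4; ADP added 3 min later gave state 3. Mitochondria isolated from rat liver by differential centrifugation, adjusted to 1 mg/ml and pretreated 5 min with inhibitor (0.1% DMSO final). Values relative to DMSO control, set to 1.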

[7] = system: isolated rat liver mitochondria; assay: Mitochondrial inner membrane potential (MMP), Rhodamine 123; type: biochemical; conditions: difference in signal between KI and DMSO treated samples at the end of experiments
From the text: Fig. 3 KI effects on mitochondrial inner membrane potential (MMP). […] In a, c, data are means and standard derivations from three separate experiments. *p < 0.05 as compared to DMSO-treated samples at the end of experiments. In b, data are means of two independent experiments

RCC I = RCC I activity in submitochondrial particles; type: biochemical, rat; parameters: key to RCC I at 10XCmax / RCC I at 100XCmax / RCC I at 50XCmax / RCC I at 30XCmax / RCC I at 20XCmax: activity relative to DMSO-treated controls (control set as 1 = 100%)
Procedure, shortened: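 First, submitochondrial particles (1 mg/ml) are incubated with inhibitor for 15 min. Next, complex activities are followed spectrophotometrically, with RCC I taken as the difference between buffers lacking and containing rotenone. Finally, activities are expressed relative to DMSO controls set at 1.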

[8] = ref product labeling; cited from earlier work
RCC V = RCC V activity in submitochondrial particles; type: biochemical, rat; conditions: 5XCmax; DMSO treated samples set as 1; note: key: 0 indicates that the drug had no effects (negative)
Procedure, shortened: (§1)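 Abs 340 nm (I/V) or 600 nm (II), 1-min reads × 6 min; 550 nm (III, IV), 10-s reads × 2 min. RCC I = rotenone-free minus rotenone rate. DMSO control = 1.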

RCC II = molecular target: T1, RCC II (Rattus norvegicus, UniProt P21913+Q641Z9+Q6PCT8+Q920L2); assay: RCC II activity in submitochondrial particles; type: biochemical; parameters: key: activity relative to DMSO-treated controls (control set as 1 = 100%); conditions: DMSO treated samples set as 1
T1 construct: Submitochondrial particles were prepared by subjecting the intact mitochondria to three successive freeze–thaw cycles; from tissue; host or cells: rat liver mitochondria, used as submitochondrial particles
Procedure, shortened: as §1

[9] = system: isolated rat liver mitochondria; assay: Mitochondrial swelling (absorbance at 535 nm); type: biochemical; conditions: difference in signal between KI and DMSO treated samples at the end of experiments; for Swelling 5XCmax: key: 0 indicates that the drug had no effects (negative)
[10] = human therapeutic Cmax at FDA recommended dosages, ref product labeling and drug approval packages at the official FDA website
[11] = 10XCmax, DMSO treated samples set as 1
[12] = 1XCmax, DMSO treated samples set as 1
[13] = 2.5XCmax, DMSO treated samples set as 1
[14] = 5XCmax, DMSO treated samples set as 1
[15] = 20XCmax, DMSO treated samples set as 1
[16] = 30XCmax, DMSO treated samples set as 1

T1 sequence (Q920L2 35-656): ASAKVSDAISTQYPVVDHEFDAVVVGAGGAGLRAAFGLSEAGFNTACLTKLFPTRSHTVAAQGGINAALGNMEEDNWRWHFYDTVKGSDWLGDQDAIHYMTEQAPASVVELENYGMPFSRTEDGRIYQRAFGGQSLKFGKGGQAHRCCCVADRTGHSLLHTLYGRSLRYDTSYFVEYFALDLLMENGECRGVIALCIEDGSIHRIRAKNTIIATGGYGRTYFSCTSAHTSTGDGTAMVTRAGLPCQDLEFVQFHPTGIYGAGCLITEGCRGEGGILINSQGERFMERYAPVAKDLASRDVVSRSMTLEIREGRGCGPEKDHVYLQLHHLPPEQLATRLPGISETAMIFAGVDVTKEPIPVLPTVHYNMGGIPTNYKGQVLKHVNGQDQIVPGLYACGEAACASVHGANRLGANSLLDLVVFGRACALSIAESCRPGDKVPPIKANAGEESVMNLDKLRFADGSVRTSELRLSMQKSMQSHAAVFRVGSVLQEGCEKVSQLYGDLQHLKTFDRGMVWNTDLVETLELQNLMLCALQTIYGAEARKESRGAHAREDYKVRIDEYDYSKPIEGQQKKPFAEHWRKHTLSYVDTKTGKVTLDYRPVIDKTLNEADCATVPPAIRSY
T1 sequence (P21913 31-282): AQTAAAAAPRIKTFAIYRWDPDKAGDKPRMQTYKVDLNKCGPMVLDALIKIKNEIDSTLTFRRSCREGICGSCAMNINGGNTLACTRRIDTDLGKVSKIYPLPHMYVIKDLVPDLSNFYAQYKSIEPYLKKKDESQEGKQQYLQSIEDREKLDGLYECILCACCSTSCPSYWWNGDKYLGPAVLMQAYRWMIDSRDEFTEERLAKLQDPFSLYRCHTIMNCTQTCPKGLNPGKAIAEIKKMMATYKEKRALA
T1 sequence (Q641Z9 1-169): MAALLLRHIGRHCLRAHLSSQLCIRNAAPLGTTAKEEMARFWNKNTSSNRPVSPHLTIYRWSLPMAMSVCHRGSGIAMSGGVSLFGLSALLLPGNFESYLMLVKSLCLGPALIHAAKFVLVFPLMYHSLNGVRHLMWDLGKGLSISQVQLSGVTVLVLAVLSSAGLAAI
T1 sequence (Q6PCT8 57-159): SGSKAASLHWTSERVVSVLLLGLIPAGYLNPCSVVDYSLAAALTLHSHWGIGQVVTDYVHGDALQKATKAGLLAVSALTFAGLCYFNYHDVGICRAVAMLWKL

CS(=O)(=O)CCNCc1ccc(-c2ccc3ncnc(Nc4ccc(OCc5cccc(F)c5)c(Cl)c4)c3c2)o1 [Lapatinib]
labeling for DILI ([1]; in vivo): BBW: fatal DILI
DILI potential (based on labeling) ([1]; ref FDA product labeling): 1
mitochondrial injury ([2]; concentrations equal to 100-fold Cmax): mitochondrial injury was induced

C=CC(=O)Nc1cc(Nc2nccc(-c3cn(C)c4ccccc34)n2)c(OC)cc1N(C)CCN(C)C [Osimertinib]
lowest concentration triggering ROS overproduction [3]: 30 fold Cmax
lowest concentration causing cytochrome c release [4]: 100 fold Cmax
Cmax [5, 10]: 0.5 µM
lowest concentration causing significant mitochondrial toxicity [2]: 30 fold Cmax

N#CC[C@H](C1CCCC1)n1cc(-c2ncnc3[nH]ccc23)cn1 [Ruxolitinib]
DILI potential (based on labeling) ([1]; ref FDA product labeling): 0
lowest concentration causing cytochrome c release [4]: 50 fold Cmax
Glutamate/malate driven respiration State 3 ([6]; 20-fold Cmax): 0.62 ± 0.05
Glutamate/malate driven respiration State 4 ([6]; 20-fold Cmax): 0.81 ± 0.05
Succinate-driven respiration State 3 ([6]; 20-fold Cmax): 0.90 ± 0.13
Succinate-driven respiration State 4 ([6]; 20-fold Cmax): 1.00 ± 0.14
Glutamate/malate driven respiration State 3 ([6]; 30-fold Cmax): 0.54 ± 0.02
Glutamate/malate driven respiration State 4 ([6]; 30-fold Cmax): 1.00 ± 0.09
Succinate-driven respiration State 3 ([6]; 30-fold Cmax): 1.05 ± 0.11
Succinate-driven respiration State 4 ([6]; 30-fold Cmax): 1.08 ± 0.09
Glutamate/malate driven respiration State 3 ([6]; 50-fold Cmax): 0.49 ± 0.06
Glutamate/malate driven respiration State 4 ([6]; 50-fold Cmax): 0.97 ± 0.20
Succinate-driven respiration State 3 ([6]; 50-fold Cmax): 0.87 ± 0.08
Succinate-driven respiration State 4 ([6]; 50-fold Cmax): 1.07 ± 0.07
Glutamate/malate driven respiration State 3 ([6]; 100-fold Cmax): 0.28 ± 0.06
Glutamate/malate driven respiration State 4 ([6]; 100-fold Cmax): 0.71 ± 0.08
Succinate-driven respiration State 3 ([6]; 100-fold Cmax): 0.99 ± 0.03
Succinate-driven respiration State 4 ([6]; 100-fold Cmax): 1.17 ± 0.12
lowest concentration significantly affecting mitochondrial oxygen consumption ([6]; tested at 1 to 100-fold Cmax): 20 fold Cmax
Cmax [5, 10]: 1.2 µM
lowest concentration causing significant mitochondrial toxicity [2]: 20 fold Cmax

CCN(CC)CCNC(=O)c1c(C)[nH]c(/C=C2\C(=O)Nc3ccc(F)cc32)c1C [Sunitinib]
labeling for DILI ([1]; W&P warnings and precautions, BBW black box warnings, ref FDA product labeling): BBW: fatal DILI
DILI potential (based on labeling) ([1]; ref FDA product labeling): 1
Cmax [5, 10]: 0.12 µM
Cmax ([5]; ref Porceddu et al. [2012]): 70.8 µM
effects on intact mitochondria or submitochondrial particles ([2]; highest concentrations tested): no effects

COc1cc2nccc(Oc3ccc(NC(=O)C4(C(=O)Nc5ccc(F)cc5)CC4)cc3)c2cc1OC [cabozantinib malate]
MMP measured by Rhodamine 123 at 1XCmax ([7]; 1XCmax): 0
MMP measured by Rhodamine 123 at 2.5XCmax ([7]; 2.5XCmax): 0
MMP measured by Rhodamine 123 at 5XCmax ([7]; 5XCmax): 0
MMP measured by Rhodamine 123 at 10XCmax ([7]; 10XCmax): 945±179*
MMP measured by Rhodamine 123 at 20XCmax ([7]; 20XCmax): 1828±818*
MMP measured by Rhodamine 123 at 30XCmax ([7]; 30XCmax): 2071±803*
DILI potential (based on labeling) ([1]; 1 DILI positive, 0 negative according to labeling, ref product labeling): 0
RCC I at 10XCmax (RCC I; [11]): 0
RCC I at 30XCmax (RCC I; 30XCmax, DMSO-treated = 100): 80.97±2.99
Potential for cardiotoxicity (based on labeling) [8]: 0
ROS measured by CM-H2DCFDA at 1XCmax [3, 12]: 0
ROS measured by CM-H2DCFDA at 2.5XCmax [3, 13]: 0
ROS measured by CM-H2DCFDA at 5XCmax [3, 14]: 0
ROS measured by CM-H2DCFDA at 10XCmax [3, 11]: 0
ROS measured by CM-H2DCFDA at 20XCmax [3, 15]: 0
ROS measured by CM-H2DCFDA at 30XCmax [3, 16]: 0
RCC V at 5XCmax (RCC V): 0
Cytochrome c release 1XCmax ([4]; 1XCmax, positive control alamethicin treated samples): 0
Cytochrome c release 2.5XCmax ([4]; 2.5XCmax, positive control alamethicin treated samples): 0
Cytochrome c release 5XCmax ([4]; 5XCmax, positive control alamethicin treated samples): 0
Cytochrome c release 10XCmax ([4]; 10XCmax, positive control alamethicin treated samples): 0
Cytochrome c release 20XCmax ([4]; 20XCmax, positive control alamethicin treated samples): 0
Cytochrome c release 30XCmax ([4]; 30XCmax, positive control alamethicin treated samples): 0
State 3 respiration driven by succinate at 1XCmax [6, 12]: 0
State 4 respiration driven by succinate at 1XCmax [6, 12]: 0
State 3 respiration driven by succinate at 2.5XCmax [6, 13]: 0
State 4 respiration driven by succinate at 2.5XCmax [6, 13]: 0
State 3 respiration driven by succinate at 5XCmax [6, 14]: 0
State 4 respiration driven by succinate at 5XCmax [6, 14]: 0
State 3 respiration driven by succinate at 10XCmax [6, 11]: 0
State 4 respiration driven by glutamate/malate at 10XCmax [6, 11]: 1.46±0.08
State 4 respiration driven by succinate at 10XCmax [6, 11]: 1.23±0.11
State 3 respiration driven by succinate at 20XCmax [6, 15]: 0
State 4 respiration driven by glutamate/malate at 20XCmax [6, 15]: 1.30±0.15
State 4 respiration driven by succinate at 20XCmax [6, 15]: 1.24±0.05
State 3 respiration driven by succinate at 30XCmax [6, 16]: 0
State 4 respiration driven by glutamate/malate at 30XCmax [6, 16]: 1.55±0.06
State 4 respiration driven by succinate at 30XCmax [6, 16]: 1.35±0.18
RCC II at 1.0XCmax (RCC II; 1.0XCmax): 0
RCC II at 2.5XCmax (RCC II; 2.5XCmax): 0
RCC II at 5XCmax (RCC II; 5XCmax): 0
RCC II at 10XCmax (RCC II; 10XCmax): 0
RCC II at 20XCmax (RCC II; 20XCmax): 0
RCC II at 30XCmax (RCC II; 30XCmax): 79.26±6.01
Cmax (ng or µg/ml) ([5]; human therapeutic maximal blood concentration, ref product labeling): 1.64 µg/mL
Cmax ([5]; read-out: Cmax at µM, human therapeutic maximal blood concentration, ref product labeling): 2.58 µM
Swelling 1XCmax ([9]; 1XCmax): 0
Swelling 2.5XCmax ([9]; 2.5XCmax): 0
Swelling 5XCmax ([9]; 5XCmax): 0
Swelling 10XCmax ([9]; 10XCmax): 0
Swelling 20XCmax ([9]; 20XCmax): 0.48±0.01
Swelling 30XCmax ([9]; 30XCmax): 0.46±0.01
